How the values were obtained:
[1] = Compound was evaluated for its inhibitory activity in a calcineurin inhibition assay
[2] = Compound was evaluated for its inhibitory activity in a calcineurin inhibition assay (MTM)
[3] = Compound was evaluated for its inhibitory activity in a calcineurin inhibition assay (morn)
[4] = Compound was evaluated for its inhibitory activity in a calcineurin inhibition assay (MOM)

IC50 [1] [nM]	SMILES	other results
581	CC[C@@H]1NC(=O)[C@H]([C@H](O)[C@H](C)C/C=C/C(=O)OC)N(C)C(=O)[C@H](C(C)C)N(C)C(=O)[C@H](CC(C)C)N(C)C(=O)[C@H](CC(C)C)N(C)C(=O)[C@@H](C)NC(=O)[C@H](C)NC(=O)[C@H](CC(C)C)N(C)C(=O)[C@H](C(C)C)NC(=O)[C@H](CC(C)C)N(C)C(=O)CN(C)C1=O [6-(5-Ethyl-11,17,26,29-tetraisobutyl-14,32-diisopropyl-1,7,10,16,20,23,25,28,31-nonamethyl-3,6,9,12,15,18,21,24,27,30,33-undecaoxo-1,4,7,10,13,16,19,22,25,28,31undecaaza-cyclotritriacont-2-yl)-6-hydroxy-5-methyl-hex-2-enoic acid methyl ester]	
> 5000	CC[C@@H]1NC(=O)[C@H]([C@H](O)[C@H](C)C/C=C/C(=O)O)N(C)C(=O)[C@H](C(C)C)N(C)C(=O)[C@H](CC(C)C)N(C)C(=O)[C@H](CC(C)C)N(C)C(=O)[C@@H](C)NC(=O)[C@H](C)NC(=O)[C@H](CC(C)C)N(C)C(=O)[C@H](C(C)C)NC(=O)[C@H](CC(C)C)N(C)C(=O)CN(C)C1=O [6-(5-Ethyl-11,17,26,29-tetraisobutyl-14,32-diisopropyl-1,7,10,16,20,23,25,28,31-nonamethyl-3,6,9,12,15,18,21,24,27,30,33-undecaoxo-1,4,7,10,13,16,19,22,25,28,31undecaaza-cyclotritriacont-2-yl)-6-hydroxy-5-methyl-hex-2-enoic acid]	
636	CC[C@@H]1NC(=O)[C@H]([C@H](O)[C@H](C)C/C=C/C(=O)OCCF)N(C)C(=O)[C@H](C(C)C)N(C)C(=O)[C@H](CC(C)C)N(C)C(=O)[C@H](CC(C)C)N(C)C(=O)[C@@H](C)NC(=O)[C@H](C)NC(=O)[C@H](CC(C)C)N(C)C(=O)[C@H](C(C)C)NC(=O)[C@H](CC(C)C)N(C)C(=O)CN(C)C1=O [6-(5-Ethyl-11,17,26,29-tetraisobutyl-14,32-diisopropyl-1,7,10,16,20,23,25,28,31-nonamethyl-3,6,9,12,15,18,21,24,27,30,33-undecaoxo-1,4,7,10,13,16,19,22,25,28,31undecaaza-cyclotritriacont-2-yl)-6-hydroxy-5-methyl-hex-2-enoic acid 2-fluoro-ethyl ester]	
	CC[C@@H]1NC(=O)[C@H]([C@H](O)[C@H](C)C/C=C/C(=O)OCSC)N(C)C(=O)[C@H](C(C)C)N(C)C(=O)[C@H](CC(C)C)N(C)C(=O)[C@H](CC(C)C)N(C)C(=O)[C@@H](C)NC(=O)[C@H](C)NC(=O)[C@H](CC(C)C)N(C)C(=O)[C@H](C(C)C)NC(=O)[C@H](CC(C)C)N(C)C(=O)CN(C)C1=O [Cyclosporin A analogue]	IC50 [2]: 2150 nM; IC50 [3]: 348 nM
840	CCOC(=O)CCC[C@@H](C)[C@@H](O)[C@H]1C(=O)N[C@@H](CC)C(=O)N(C)CC(=O)N(C)[C@@H](CC(C)C)C(=O)N[C@@H](C(C)C)C(=O)N(C)[C@@H](CC(C)C)C(=O)N[C@@H](C)C(=O)N[C@H](C)C(=O)N(C)[C@@H](CC(C)C)C(=O)N(C)[C@@H](CC(C)C)C(=O)N(C)[C@@H](C(C)C)C(=O)N1C [6-(5-Ethyl-11,17,26,29-tetraisobutyl-14,32-diisopropyl-1,7,10,16,20,23,25,28,31-nonamethyl-3,6,9,12,15,18,21,24,27,30,33-undecaoxo-1,4,7,10,13,16,19,22,25,28,31undecaaza-cyclotritriacont-2-yl)-6-hydroxy-5-methyl-hexanoic acid ethyl ester]	
363	CCOC(=O)/C=C/C[C@@H](C)[C@@H](O)[C@H]1C(=O)N[C@@H](CC)C(=O)N(C)CC(=O)N(C)[C@@H](CC(C)C)C(=O)N[C@@H](C(C)C)C(=O)N(C)[C@@H](CC(C)C)C(=O)N[C@@H](C)C(=O)N[C@H](C)C(=O)N(C)[C@@H](CC(C)C)C(=O)N(C)[C@@H](CC(C)C)C(=O)N(C)[C@@H](C(C)C)C(=O)N1C [6-(5-Ethyl-11,17,26,29-tetraisobutyl-14,32-diisopropyl-1,7,10,16,20,23,25,28,31-nonamethyl-3,6,9,12,15,18,21,24,27,30,33-undecaoxo-1,4,7,10,13,16,19,22,25,28,31undecaaza-cyclotritriacont-2-yl)-6-hydroxy-5-methyl-hex-2-enoic acid ethyl ester]	
> 5000	CC[C@@H]1NC(=O)[C@H]([C@H](O)[C@H](C)CCCC(=O)OCSC)N(C)C(=O)[C@H](C(C)C)N(C)C(=O)[C@H](CC(C)C)N(C)C(=O)[C@H](CC(C)C)N(C)C(=O)[C@@H](C)NC(=O)[C@H](C)NC(=O)[C@H](CC(C)C)N(C)C(=O)[C@H](C(C)C)NC(=O)[C@H](CC(C)C)N(C)C(=O)CN(C)C1=O [6-(5-Ethyl-11,17,26,29-tetraisobutyl-14,32-diisopropyl-1,7,10,16,20,23,25,28,31-nonamethyl-3,6,9,12,15,18,21,24,27,30,33-undecaoxo-1,4,7,10,13,16,19,22,25,28,31undecaaza-cyclotritriacont-2-yl)-6-hydroxy-5-methyl-hexanoic acid methylsulfanylmethylester]	
	CC[C@@H]1NC(=O)[C@H]([C@H](O)[C@H](C)C/C=C/C(=O)OCOC)N(C)C(=O)[C@H](C(C)C)N(C)C(=O)[C@H](CC(C)C)N(C)C(=O)[C@H](CC(C)C)N(C)C(=O)[C@@H](C)NC(=O)[C@H](C)NC(=O)[C@H](CC(C)C)N(C)C(=O)[C@H](C(C)C)NC(=O)[C@H](CC(C)C)N(C)C(=O)CN(C)C1=O [6-(5-Ethyl-11,17,26,29-tetraisobutyl-14,32-diisopropyl-1,7,10,16,20,23,25,28,31-nonamethyl-3,6,9,12,15,18,21,24,27,30,33-undecaoxo-1,4,7,10,13,16,19,22,25,28,31undecaaza-cyclotritriacont-2-yl)-6-hydroxy-5-methyl-hex-2-enoic acid methoxymethyl ester]	IC50 [4]: 1920 nM; IC50 [3]: 742 nM
890	CC[C@@H]1NC(=O)[C@H]([C@H](O)[C@H](C)CCCC(=O)OC)N(C)C(=O)[C@H](C(C)C)N(C)C(=O)[C@H](CC(C)C)N(C)C(=O)[C@H](CC(C)C)N(C)C(=O)[C@@H](C)NC(=O)[C@H](C)NC(=O)[C@H](CC(C)C)N(C)C(=O)[C@H](C(C)C)NC(=O)[C@H](CC(C)C)N(C)C(=O)CN(C)C1=O [6-(5-Ethyl-11,17,26,29-tetraisobutyl-14,32-diisopropyl-1,7,10,16,20,23,25,28,31-nonamethyl-3,6,9,12,15,18,21,24,27,30,33-undecaoxo-1,4,7,10,13,16,19,22,25,28,31undecaaza-cyclotritriacont-2-yl)-6-hydroxy-5-methyl-hexanoic acid methyl ester]	
1540	CC[C@@H]1NC(=O)[C@H]([C@H](O)[C@H](C)CCCC(=O)OCCF)N(C)C(=O)[C@H](C(C)C)N(C)C(=O)[C@H](CC(C)C)N(C)C(=O)[C@H](CC(C)C)N(C)C(=O)[C@@H](C)NC(=O)[C@H](C)NC(=O)[C@H](CC(C)C)N(C)C(=O)[C@H](C(C)C)NC(=O)[C@H](CC(C)C)N(C)C(=O)CN(C)C1=O [6-(5-Ethyl-11,17,26,29-tetraisobutyl-14,32-diisopropyl-1,7,10,16,20,23,25,28,31-nonamethyl-3,6,9,12,15,18,21,24,27,30,33-undecaoxo-1,4,7,10,13,16,19,22,25,28,31undecaaza-cyclotritriacont-2-yl)-6-hydroxy-5-methyl-hexanoic acid 2-fluoro-ethyl ester]	
